Test results from PMC9691367, “The PROTAC selectively degrading Bcl-xL represents a novel Hedgehog pathway inhibitor with capacity of combating resistance to Smoothened inhibitors while sparing bone growth” (Theranostics, 2022).
Values joined by “and” are separate entries in the source; they are usually repeats but may differ in a detail not shown here. Identical values can stand only once. Like-named read-outs stand apart in the source and are kept apart here.

Experiments:
[1] = Pharmacokinetic study in male ICR mice; format: in vivo, mouse; conditions: for MRT last: read-out: MRT(0-t); for MRT inf: read-out: MRT(0-∞)
Procedure: Standard pharmacokinetic (PK) studies were conducted using male ICR Mice. A single 2 mg/kg intravenous (i.v.) injection, 10 mg/kg intraperitoneal (i.p.) injection or 10 mg/kg oral (p.o.) administration of SIAIS361034 was evaluated. Plasma concentrations of SIAIS361034 at each of the 7 time points (0.25 h, 0.5 h, 1 h, 2 h, 4 h, 8 h, and 24 h post dosing) are the average values from 3 animals.

[2] = molecular target: Bcl-xL (Homo sapiens, UniProt Q07817); assay: Co-immunoprecipitation of Bcl-xL ubiquitination in 293T cells; format: cell-based; conditions: 293T cells with GST-Bcl-xL and HA-Ub, 1 µM, 4 h
Procedure: Cells were lysed in immunoprecipitation lysis buffer (#87787, Thermo Fisher Scientific) supplemented with protease and phosphatase inhibitor cocktail. Cell lysates were incubated with the indicated antibodies at 4 °C overnight, followed by incubation with Protein A/G Plus-Agarose beads (Santa Cruz Biotechnology) at 4 °C for 4 h. Immunoprecipitates were collected by centrifugation and washed three times with washing buffer. The complex was separated from the beads and then boiled for 10 min. The immunoprecipitates and inputs were analyzed by SDS-PAGE and immunoblot using the antibodies as indicated. […]
hydrochloride; DMAP = 4-dimethylaminopyridine; TFA = trifluoroacetic acid; DMF = N,N-dimethylformamide. (D) A representative western blot analysis of SALL4 in NIH-3T3 cells after being treated with SIAIS361034 as indicated for 24 h. (E) A representative western blot analysis of hemagglutinin (HA), Bcl-xL, and GAPDH following GST-Bcl-xL immunoprecipitation of protein extracts from 293T cells. Cells were cotransfected as indicated with GST-Bcl-xL and HA-tagged ubiquitin (HA-Ub) and then were treated with or without SIAIS361034 (1 µM) and MG132 (10 µM) as […]

[3] = molecular target: Bcl-2 (Homo sapiens, UniProt P10415); assay: Competitive fluorescence polarization assay, Bcl-2 / FAM-Bax; format: binding; conditions: Bcl-2 100 nM, FAM-Bax 5 nM
Procedure: Competitive fluorescence polarization assays were carried out in black-walled plates in assay buffer (20 mM Na2HPO4 ·12H2O, 20 mM NaH2PO4·12H2O, 1 mM EDTA, 50 mM NaCl, 0.05% PF-68). The use of protein/peptide probe pairs was as follows: Bcl-xL (5 nM) and FAM-Bad (5 nM), Bcl-2 (100 nM) and FAM-Bax (5 nM), Mcl-1 (100 nM) and FAM-Bim (5 nM). Assay buffer, proteins, drugs, and peptides were added to the assay plates sequentially. The assay plates were slightly shaken for 3 min and incubated for 30 min at room temperature. The fluorescence polarization was measured on a Synergy 2 reader (BioTek).

[4] = system: SmoA1 (Smo W539L) medulloblastoma tumor; assay: SmoA1 medulloblastoma allograft in nude mice; format: in vivo, mouse
Description: For in vivo SmoA1 MB allograft studies, SmoA1 spontaneous MB tumors were obtained from ND2:SmoA1 transgenic mice as previously described. Male nude mice (4 to 5 weeks of age) were purchased from Shanghai Lingchang Biotechnology Co. (Shanghai, China). Spontaneous tumors were harvested and subcutaneously allografted into nude mice. When the tumor volumes reached approximately 2000 mm^3, they were harvested and further subcutaneously allografted into nude mice. When the tumor volumes reached about 150 to 200 mm^3, the tumor-bearing mice were randomly assigned into vehicle and treatment groups. Mice were weighed every 3 days. Tumor size was measured once every 3 days using microcaliper. Tumor volume (V) was determined using the following formula: V = (L×W^2) ×0.5, where L is length, and W is width in mm. Tumor tissues were harvested 6 h after the last dosage to examining Gli1 mRNA expression and protein levels. SIAIS361034 for i.p. administration was formulated in 0.5% sodium carboxymethyl cellulose (CMC-Na). All in vivo studies above were approved by and conformed to the policies and regulations of the Animal Care and Use Committee of Fudan University, China.

[5] = male ICR mice, 2 mg/kg IV, individual animals (Mouse 1-3), 2 mg/kg
[6] = male ICR mice, 10 mg/kg IP, individual animals (Mouse 1-3), 10 mg/kg
[7] = male ICR mice, 10 mg/kg PO, individual animals (Mouse 1, 3; Mouse 2 NA), 10 mg/kg
[8] = male ICR mice, 10 mg/kg PO, individual animals (Mouse 1-3), 10 mg/kg
[9] = male, ICR, mouse, plasma, ip, 10 mg/kg, male ICR mice, 10 mg/kg IP, individual animals (Mouse 1-3)
[10] = male, ICR, mouse, plasma, ip, 10 mg/kg, male ICR mice, 10 mg/kg IP, mean of 3 animals
[11] = male, ICR, mouse, plasma, iv, 2 mg/kg, male ICR mice, 2 mg/kg IV, individual animals (Mouse 1-3)
[12] = male, ICR, mouse, plasma, iv, 2 mg/kg, male ICR mice, 2 mg/kg IV, mean of 3 animals
[13] = male, ICR, mouse, plasma, po, 10 mg/kg, male ICR mice, 10 mg/kg PO, mean

Chain of Bcl-2 (P10415 whole entry, species assumed): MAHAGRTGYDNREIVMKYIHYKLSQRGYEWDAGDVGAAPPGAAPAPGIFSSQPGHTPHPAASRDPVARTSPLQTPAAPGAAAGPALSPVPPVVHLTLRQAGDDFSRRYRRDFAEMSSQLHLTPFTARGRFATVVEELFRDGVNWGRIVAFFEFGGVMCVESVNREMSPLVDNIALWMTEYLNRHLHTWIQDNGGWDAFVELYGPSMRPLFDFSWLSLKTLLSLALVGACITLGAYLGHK
Chain of Bcl-xL (Q07817 whole entry, species assumed): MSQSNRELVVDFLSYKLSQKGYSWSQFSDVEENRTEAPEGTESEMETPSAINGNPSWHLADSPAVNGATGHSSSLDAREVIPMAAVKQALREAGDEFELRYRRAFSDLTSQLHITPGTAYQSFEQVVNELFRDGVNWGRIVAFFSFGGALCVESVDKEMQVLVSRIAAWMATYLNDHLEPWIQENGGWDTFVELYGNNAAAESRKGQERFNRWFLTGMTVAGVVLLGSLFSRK

With `CC1(C)CCC(c2ccc(Cl)cc2)=C(CN2CCN(c3ccc(C(=O)NS(=O)(=O)c4ccc(NCCCN5CCN(CCCC#Cc6cccc7c6CN(C6CCC(=O)NC6=O)C7=O)CC5)c(S(=O)(=O)C(F)(F)F)c4)cc3)CC2)C1` (stereo not drawn) [SIAIS361034] the “AUC(0-t)” value [1, 5] was 6203 ng·h/mL and 4263 ng·h/mL, the “AUC(0-∞)” value [1, 5] was 6222 ng·h/mL and 4305 ng·h/mL and the C0 [1, 5] was 34215 ng/mL and 79513 ng/mL and 43287 ng/mL. For the same molecule, the Cl [1, 5] was 5.35 mL/min/kg and 7.75 mL/min/kg, the Cmax [1, 5] was 17900 ng/mL and 13200 ng/mL and the “MRT(0-t)” value [1, 5] was 0.30 h and 0.31 h. For the same molecule, the “MRT(0-∞)” value [1, 5] was 0.40 h and 0.42 h, the T1/2 [1, 5] was 1.79 h and 6.38 h and 2.29 h and the Vss [1, 5] was 0.13 L/kg and 0.193 L/kg. The Vz [1, 5] was 2.957 L/kg and 1.535 L/kg, the “AUC(0-t)” value [1, 6] was 20871 ng·h/mL and 15558 ng·h/mL and the “AUC(0-∞)” value [1, 6] was 22061 ng·h/mL and 16141 ng·h/mL. The Cmax [1, 6] was 9700 ng/mL and 4920 ng/mL, the F [1, 6] was 71.4% and 96.4% and 70.5% and the “MRT(0-t)” value [1, 6] was 5.16 h and 4.24 h. The “MRT(0-∞)” value [1, 6] was 6.68 h and 5.22 h, the T1/2 [1, 6] was 5.23 h and 5.94 h and the Tmax ([1]; male ICR mice, 10 mg/kg IP, individual animals (Mouse 1-3; 0.50 twice), 10 mg/kg) was 0.50 h. For the same molecule, the “AUC(0-∞)” value [1, 7] was 305 ng·h/mL and 111 ng·h/mL, the “MRT(0-∞)” value [1, 7] was 10.30 h and 2.82 h and the T1/2 [1, 7] was 8.98 h and 2.39 h. The F ([1]; male ICR mice, 10 mg/kg PO, individual animals (Mouse 1, 3; Mouse 2 and mean NA), 10 mg/kg) was 1.33% and 0.484%, the “AUC(0-t)” value [1, 8] was 265 ng·h/mL and 213 ng·h/mL and 101 ng·h/mL and the Cmax [1, 8] was 54.9 ng/mL and 49.1 ng/mL. The “MRT(0-t)” value [1, 8] was 6.29 h and 2.88 h and 2.01 h, the Tmax ([1]; male ICR mice, 10 mg/kg PO, individual animals (Mouse 1-3; 1.00 twice), 10 mg/kg) was 2.00 h and the AUC(0-inf) [1, 9] was 16300 ng·h/mL. For the same molecule, the half-life [1, 9] was 6.44 h, the AUC(0-t) ([1]; male, ICR, mouse, plasma, ip, 10 mg/kg, male ICR mice, 10 mg/kg IP, individual animals (Mouse 1-3), read-out: AUC(0-t)) was 15500 ng·h/mL and the Cmax ([1]; male, ICR, mouse, plasma, ip, 10 mg/kg, male ICR mice, 10 mg/kg IP, individual animals (Mouse 1-3), read-out: Cmax) was 7630 ng/mL. The MRT last [1, 9] was 3.84 h, the MRT inf [1, 9] was 5.25 h and the Tmax ([1]; male, ICR, mouse, plasma, ip, 10 mg/kg, male ICR mice, 10 mg/kg IP, individual animals (Mouse 1-3; 0.50 twice), read-out: Tmax) was 1 h. For the same molecule, the AUC(0-inf) [1, 10] was 18200 ng·h/mL, the bioavailability [1, 10] was 79.4% and the half-life [1, 10] was 5.87 h. It also gave an AUC(0-t) ([1]; male, ICR, mouse, plasma, ip, 10 mg/kg, male ICR mice, 10 mg/kg IP, mean of 3 animals, read-out: AUC(0-t)) of 17300 ng·h/mL, a Cmax ([1]; male, ICR, mouse, plasma, ip, 10 mg/kg, male ICR mice, 10 mg/kg IP, mean of 3 animals, read-out: Cmax) of 7420 ng/mL and an MRT last [1, 10] of 4.41 h. It also gave an MRT inf [1, 10] of 5.72 h, a Tmax ([1]; male, ICR, mouse, plasma, ip, 10 mg/kg, male ICR mice, 10 mg/kg IP, mean of 3 animals, read-out: Tmax) of 0.67 h and an AUC(0-inf) [1, 11] of 3200 ng·h/mL. The clearance [1, 11] was 10.4 mL/min/kg, the AUC(0-t) ([1]; male, ICR, mouse, plasma, iv, 2 mg/kg, male ICR mice, 2 mg/kg IV, individual animals (Mouse 1-3), read-out: AUC(0-t)) was 3190 ng·h/mL and the Cmax ([1]; male, ICR, mouse, plasma, iv, 2 mg/kg, male ICR mice, 2 mg/kg IV, individual animals (Mouse 1-3), read-out: Cmax) was 10300 ng/mL. It also gave an MRT last [1, 11] of 0.22 h, an MRT inf [1, 11] of 0.26 h and a Vd ([1]; male, ICR, mouse, plasma, iv, 2 mg/kg, male ICR mice, 2 mg/kg IV, individual animals (Mouse 1-3), read-out: Vss) of 0.163 L/kg. It also gave a Vd ([1]; male, ICR, mouse, plasma, iv, 2 mg/kg, male ICR mice, 2 mg/kg IV, individual animals (Mouse 1-3), read-out: Vz) of 1.61 L/kg, a Tmax ([1]; male, ICR, mouse, plasma, iv, 2 mg/kg, male ICR mice, 2 mg/kg IV, individual animals (Mouse 1-3, same value), read-out: Tmax) of 0.083 h and an AUC(0-inf) [1, 12] of 4580 ng·h/mL. The clearance [1, 12] was 7.83 mL/min/kg, the half-life [1, 12] was 3.49 h and the AUC(0-t) ([1]; male, ICR, mouse, plasma, iv, 2 mg/kg, male ICR mice, 2 mg/kg IV, mean of 3 animals, read-out: AUC(0-t)) was 4550 ng·h/mL. It also gave a C0 ([1]; male, ICR, mouse, plasma, iv, 2 mg/kg, male ICR mice, 2 mg/kg IV, mean of 3 animals, read-out: C0) of 52300 ng/mL, a Cmax ([1]; male, ICR, mouse, plasma, iv, 2 mg/kg, male ICR mice, 2 mg/kg IV, mean of 3 animals, read-out: Cmax) of 13800 ng/mL and an MRT last [1, 12] of 0.28 h. The MRT inf [1, 12] was 0.36 h, the Tmax ([1]; male, ICR, mouse, plasma, iv, 2 mg/kg, male ICR mice, 2 mg/kg IV, mean of 3 animals, read-out: Tmax) was 0.083 h and the Vd ([1]; male, ICR, mouse, plasma, iv, 2 mg/kg, male ICR mice, 2 mg/kg IV, mean of 3 animals, read-out: Vss) was 0.162 L/kg. For the same molecule, the Vd ([1]; male, ICR, mouse, plasma, iv, 2 mg/kg, male ICR mice, 2 mg/kg IV, mean of 3 animals, read-out: Vz) was 2.03 L/kg, the Cmax ([1]; male, ICR, mouse, plasma, po, 10 mg/kg, male ICR mice, 10 mg/kg PO, individual animals (Mouse 1-3), read-out: Cmax) was 50.9 ng/mL and the Tmax ([1]; male, ICR, mouse, plasma, po, 10 mg/kg, male ICR mice, 10 mg/kg PO, individual animals (Mouse 1-3; 1.00 twice), read-out: Tmax) was 1 h. For the same molecule, the AUC(0-inf) [1, 13] was 208 ng·h/mL, the half-life [1, 13] was 5.68 h and the AUC(0-t) ([1]; male, ICR, mouse, plasma, po, 10 mg/kg, male ICR mice, 10 mg/kg PO, mean of 3 animals, read-out: AUC(0-t)) was 193 ng·h/mL. It also gave a Cmax ([1]; male, ICR, mouse, plasma, po, 10 mg/kg, male ICR mice, 10 mg/kg PO, mean of 3 animals, read-out: Cmax) of 51.6 ng/mL, an MRT last ([1]; male, ICR, mouse, plasma, po, 10 mg/kg, male ICR mice, 10 mg/kg PO, mean of 3 animals) of 3.73 h and a Tmax ([1]; male, ICR, mouse, plasma, po, 10 mg/kg, male ICR mice, 10 mg/kg PO, mean of 3 animals, read-out: Tmax) of 1.33 h. The MRT inf [1, 13] was 6.56 h, the “pharmacokinetic property, oral” value ([1]; mice, 10 mg/kg p.o.) was “poor pharmacokinetic property” and the plasma exposure ([1]; mice, single 10 mg/kg i.p. or 2 mg/kg i.v., over 24 h) was “good plasma exposure”. For the same molecule, the Bcl-xL ubiquitination [2] was “induce Bcl-xL ubiquitination”, the Ki [3] was 15.1 nM and the “tumor inhibition ratio / mean tumor growth inhibition (TGI) ratio” value ([4]; nude mice, SIAIS361034 50 mg/kg, day 15 (termination of the experiment)) was 93.56%. The “growth of SmoA1 tumors” value ([4]; nude mice, SIAIS361034 50 mg/kg, GDC-0449 50 mg/kg p.o.) was “remarkably suppressed”, the “expression of Gli1 mRNA in tumor tissues” value ([4]; tumors harvested 6 h after the last dosage, RT-qPCR) was “significantly inhibited” and the “Bcl-xL and Gli1 protein in harvested tumors” value ([4]; western blot at the end of the experiment) was “inducing Bcl-xL degradation and repressing Gli1 expression”.
